Results reported in patent US20230390269A1, “METHOD OF TREATMENT WITH TRADIPITANT” (Vanda Pharmaceuticals Inc., priority 2017, published 2023).
One block for each compound: values may come before it. Bridge positions count the residues as written; N and C are the ends. Square brackets hold non-standard residues; d marks the D form. Peptide text beside a SMILES is read from it. * marks the point of attachment. NH(β-GlcNAc) = CC(=O)N[C@@H]1[C@@H](O)[C@H](O)[C@@H](CO)O[C@H]1N*; Dap = NC[C@H](N)C(=O)O

Columns and labels:
NK-1 = target: T1, NK-1 (Homo sapiens, UniProt P25103); settings: patients with IBS, double-blind study; cited from earlier work
T1 construct: host or cells: patients with IBS
T1 sequence (P25103 whole entry): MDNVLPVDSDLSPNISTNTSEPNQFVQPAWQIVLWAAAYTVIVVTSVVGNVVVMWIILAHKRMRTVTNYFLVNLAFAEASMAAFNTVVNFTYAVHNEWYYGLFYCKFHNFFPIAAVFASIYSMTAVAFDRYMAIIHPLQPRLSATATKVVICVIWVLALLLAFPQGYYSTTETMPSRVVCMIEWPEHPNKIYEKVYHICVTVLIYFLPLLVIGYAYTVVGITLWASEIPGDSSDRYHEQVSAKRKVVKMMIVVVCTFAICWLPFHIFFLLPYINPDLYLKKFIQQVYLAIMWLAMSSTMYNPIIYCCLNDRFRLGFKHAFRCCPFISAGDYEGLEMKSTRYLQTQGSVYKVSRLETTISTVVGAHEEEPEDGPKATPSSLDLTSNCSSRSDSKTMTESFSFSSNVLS

NK-1 receptor [1] = target: T2, NK-1 receptor (Meriones unguiculatus, UniProt Q5DUB1); assay: NK-1 agonist (GR73632, icv)-induced foot-tapping behavior in gerbils; type: in vivo, Mongolian gerbil
T2 construct: from tissue; host or cells: living gerbil, brain (icv agonist)
T2 sequence (Q5DUB1 whole entry): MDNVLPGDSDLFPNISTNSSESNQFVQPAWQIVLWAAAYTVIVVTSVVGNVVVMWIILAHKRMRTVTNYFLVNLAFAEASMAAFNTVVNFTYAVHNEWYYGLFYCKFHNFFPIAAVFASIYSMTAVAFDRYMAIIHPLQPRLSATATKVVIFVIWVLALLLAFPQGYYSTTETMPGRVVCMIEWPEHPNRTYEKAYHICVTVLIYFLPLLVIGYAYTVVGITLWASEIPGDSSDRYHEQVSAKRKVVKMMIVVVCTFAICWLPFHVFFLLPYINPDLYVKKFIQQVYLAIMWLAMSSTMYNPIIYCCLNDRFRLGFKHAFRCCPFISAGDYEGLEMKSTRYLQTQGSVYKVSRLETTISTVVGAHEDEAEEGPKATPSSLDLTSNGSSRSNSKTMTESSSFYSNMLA
Procedure: Male Mongolian gerbils (Harlan Sprague Dawley, Indianapolis, IN) weighing 26 to 40 grams are administered the selective neurokinin-1 receptor agonist GR73632 (3 pmol) via direct, vertical, free-hand intracerebroventricular (icy) injection to a depth of 4.5 mm below bregma with a cuffed 27-gauge needle attached to a 50 μl Hamilton syringe. Immediately after injection, animals are placed individually into isolated chambers with pressure-sensitive velocimeter platform floors (San Diego Instruments acoustic startle apparatus) that detect and quantify vibration. The San Diego Instruments “SR” DOS-based computer program is used on a PC to record the number of foot-taps over the following 6 to 10 minutes, beginning 30 seconds after the floor was lightly tapped. Raw data is converted with a Microsoft Excel macro that determines the number of events over threshold (125) in each 250-millisecond time bin over the 5.5 minutes following onset of observation. The total number and average intensity of events over the duration is determined. Total number of taps is analyzed with one-way ANOVA and post-hoc Dunnett's test using JMP statistical software.
A dose-response curve (with doses of 0.3, 1, 3 and 10 pmols, icy) is initially generated with the NK-1 agonist GR73632. […] The 3 pmol dose is subsequently chosen as the dose of choice for antagonism experiments.
NK-1 antagonists are tested for their ability to attenuate GR73632-induced foot tapping. NK-1 antagonists are administered (po) via oral feeding tube at doses and time points specified in each experiment. All animals receive only one dose of NK-1 antagonists in all tests.
NK-1 antagonists are administered at multiple doses (at least 3; one dose per animal) and response to GR73632 is measured.
Tradipitant is dissolved in 1% CMC/0.5% SLS/0.085% PVP vehicle.

NK-2 receptor [2] = target: T3, NK-2 receptor (Homo sapiens, UniProt P21452); settings: in vivo; cited from earlier work
T3 sequence (P21452 1-398): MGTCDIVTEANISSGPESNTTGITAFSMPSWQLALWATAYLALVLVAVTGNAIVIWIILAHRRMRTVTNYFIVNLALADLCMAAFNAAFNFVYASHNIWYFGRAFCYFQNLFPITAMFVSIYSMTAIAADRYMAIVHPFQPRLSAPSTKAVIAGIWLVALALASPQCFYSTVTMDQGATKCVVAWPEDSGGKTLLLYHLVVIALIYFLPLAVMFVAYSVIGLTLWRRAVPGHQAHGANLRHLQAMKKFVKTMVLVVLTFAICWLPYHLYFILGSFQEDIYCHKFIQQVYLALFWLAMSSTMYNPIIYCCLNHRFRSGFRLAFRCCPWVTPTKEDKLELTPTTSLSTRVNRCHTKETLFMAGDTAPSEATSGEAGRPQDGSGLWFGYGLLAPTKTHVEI

NK-3 receptor = target: T4, NK-3 receptor (Homo sapiens, UniProt P29371); assay: NK-3 receptor inhibition (selectivity panel); type: binding
T4 sequence (P29371 1-465): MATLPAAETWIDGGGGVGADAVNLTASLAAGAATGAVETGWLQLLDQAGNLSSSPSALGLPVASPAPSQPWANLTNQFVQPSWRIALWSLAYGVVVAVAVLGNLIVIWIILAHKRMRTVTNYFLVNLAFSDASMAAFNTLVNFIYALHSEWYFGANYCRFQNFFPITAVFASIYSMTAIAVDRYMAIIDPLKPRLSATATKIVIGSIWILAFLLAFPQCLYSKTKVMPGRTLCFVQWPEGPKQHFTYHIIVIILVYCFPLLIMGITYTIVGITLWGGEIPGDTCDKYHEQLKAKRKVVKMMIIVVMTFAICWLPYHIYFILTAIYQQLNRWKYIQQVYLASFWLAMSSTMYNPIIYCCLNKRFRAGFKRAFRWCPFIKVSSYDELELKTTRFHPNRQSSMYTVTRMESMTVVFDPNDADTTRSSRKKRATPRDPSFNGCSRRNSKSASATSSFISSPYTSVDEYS
Procedure: (§1) In addition, tradipitant is evaluated in a panel of 74 other receptors, enzymes, and ion channels.

nausea in gastroparesis = assay: Phase II study in patients with gastroparesis, open label extension; type: in vivo, human; settings: 85 mg bid
Source text: In a phase II study of tradipitant in patients with gastroparesis, participants initially enter 4 week screening period prior to treatment with tradipitant, during which they answer a daily symptom questionnaire rating their nausea severity on a scale of […] 0 represents no nausea, 1 represents very mild nausea, 2 represents mild nausea, 3 represents moderate nausea, 4 represents severe nausea, and 5 represents very severe nausea. After the 4 week screening period, patients enter the double blind randomized portion of the study, in which they receive either tradipitant 85 mg bid, or placebo. After 4 weeks of blinded study drug treatment, patients have the opportunity to enter an additional 8 week open label extension, during which each subject receives tradipitant 85 mg bid. 64 subjects participate in at least one week of the open label tradipitant dosing portion of the study. The average daily diarized nausea scores are reported for subjects during the 4 week screening period and during the up to 8 week open label extension.

NK-1 receptor [3] = target: T5, NK-1 receptor (Cavia porcellus, UniProt P30547); assay: GR73632-induced vocalization in guinea pigs; type: in vivo, guinea pig
T5 construct: from tissue; host or cells: living guinea pig, brain (icv agonist)
T5 sequence (P30547 whole entry): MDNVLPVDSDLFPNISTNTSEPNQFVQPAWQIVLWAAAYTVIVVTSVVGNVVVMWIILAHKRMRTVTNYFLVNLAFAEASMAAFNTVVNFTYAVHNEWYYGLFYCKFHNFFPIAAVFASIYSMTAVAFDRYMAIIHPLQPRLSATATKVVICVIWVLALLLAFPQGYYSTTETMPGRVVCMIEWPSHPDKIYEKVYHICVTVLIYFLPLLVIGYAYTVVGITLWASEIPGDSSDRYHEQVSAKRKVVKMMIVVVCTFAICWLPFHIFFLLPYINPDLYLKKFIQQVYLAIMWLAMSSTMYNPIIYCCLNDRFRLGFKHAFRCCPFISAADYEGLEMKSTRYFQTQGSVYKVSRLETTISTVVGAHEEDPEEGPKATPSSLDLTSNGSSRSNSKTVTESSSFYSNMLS
Procedure: When introduced into the brain, the NK-1 receptor agonist, substance P (SP) elicits distress vocalizations in the guinea pig that can be inhibited by NK-1 antagonists (Kramer et al. 1998; Rupniak et al. 2000).
Male Dunkin/Hartley guinea pigs (200 to 250 grams) are orally administered either vehicle or an NK-1 antagonist. Approximately 45 minutes later (for dose response studies), the animals are anesthetized and 0.1 nmol of GR73632 (SP analog) in a vehicle volume of 5 μl is injected into the cerebral ventricle at the intersection of bregma and the midline of the skull. Animals are placed in a dark testing chamber located inside of a sound attenuation cubicle and vocalizations are recorded for 30 minutes following recovery from anesthesia. The time spent vocalizing is quantified for each animal. In the duration of action study (FIG. 5), 0.1 mg/kg of tradipitant or vehicle solution is administered orally and then 2, 4, or 7 hours later, 0.1 nmol of GR73632 is administered into the cerebral ventricle as described above. Vocalizations are recorded and quantified as indicated above. Vehicle solutions are either CMC (FIG. 4 data) or a 10% ethanol/emulphor, 10% propylene glycol solution (FIGS. 5 and 6). Data is analyzed using one-tailed t-tests.

brain NK-1 receptors = assay: Occupancy of brain NK-1 receptors with tracer GR205171; type: in vivo; settings: p.o., tracer GR205171 iv
Procedure: A tracer NK-1 antagonist compound (GR205171) is used to evaluate the ability of other NK-1 antagonists to occupy the brain NK-1 receptors. In these studies, the test compounds are administered orally and the tracer compound administered intravenously afterward. The occupancy of the NK-1 receptors is evaluated by quantitating the amount of the tracer compound bound to the brain NK-1 receptors after increasing doses of the test compounds.

NK-2 receptor [4] = target: T3, NK-2 receptor; assay: NK-2 receptor inhibition (selectivity panel); type: binding
Procedure: as §1

[5] = test system: panel of 74 other receptors, enzymes, and ion channels; assay: Selectivity panel of 74 other receptors, enzymes and ion channels; type: binding
Procedure: By 3 different measures, tradipitant is also a potent centrally active NK-1 antagonist in vivo.
as §1

Structure (SMILES): COc1ccc(C(C)C)cc1CN[C@H]1C2CCN(CC2)[C@H]1C(c1ccccc1)c1ccccc1 [CJ-11,974]
discomfort associated with rectosigmoidal distension (NK-1): alleviated the discomfort

time after administration up to which foot-tapping is significantly inhibited (NK-1 receptor [1]; 1.2 mg/kg po): up to 24 hours
ED50, inhibition of foot-tapping behavior (NK-1 receptor [1]; po, GR 73632 3 pmol icv, gerbil): 0.4 ± 0.05 mg/kg
Structure (SMILES): C[C@@H](O[C@H]1OCCN(Cc2n[nH]c(=O)[nH]2)[C@H]1c1ccc(F)cc1)c1cc(C(F)(F)F)cc(C(F)(F)F)c1 [MK-869]

Structure (SMILES): CC(=O)N[C@@H]1[C@@H](O)[C@H](O)[C@@H](CO)O[C@H]1NC(=O)C[C@@H]1NC(=O)[C@H](CC(C)C)NC(=O)[C@@H]2CNC(=O)C[C@H](NC1=O)C(=O)N[C@@H](Cc1c[nH]c3ccccc13)C(=O)N[C@@H](Cc1ccccc1)C(=O)N2 [nepadutant] (cyclo(D(NH(β-GlcNAc))DWF[Dap]L); lactam 2-5)
basal gastrointestinal motility (NK-2 receptor [2]): without affecting
motility-stimulating effect of neurokinin A (NK-2 receptor [2]): effectively antagonized

inhibition at the NK-3 receptor (NK-3 receptor): no significant inhibition
inhibition of vocalization at low doses (NK-1 receptor [3]; at and below 0.1 mg/kg, 0.05 and 0.025 mg/kg, p<0.001): retains significant inhibitory activity
suppression of agonist-induced vocalization, duration of activity study (NK-1 receptor [3]; single dose 0.1 mg/kg oral, 7 hours after administration): significantly active
time after administration up to which foot-tapping is significantly inhibited (NK-1 receptor [1]; 0.1 mg/kg po): up to 7 hours
time after administration up to which foot-tapping is significantly reversed (NK-1 receptor [1]; 1 mg/kg): up to 16 hours
inhibition at the NK-2 receptor (NK-2 receptor [4]): no significant inhibition
activity in panel of 74 additional receptors, enzymes, and ion channels including NK-2 and NK-3 [5]: no significant activity
inhibition of binding ([5]; test concentration 1 μM, 74 targets): ≤ 50%
Structure (SMILES): O=C(c1ccccc1Cl)c1cccnc1-c1nnn(Cc2cc(C(F)(F)F)cc(C(F)(F)F)c2)c1-c1ccncc1 [tradipitant, {2-[1-(3,5-bistrifluoromethylbenzyl)-5-pyridin-4-yl-1H-[1,2,3]triazol-4-yl]-pyridin-3-yl}-(2-chlorophenyl)-methanone]
change of average daily nausea score compared to pre-treatment (nausea in gastroparesis): reduced by approximately one half
change of average percentage of nausea-free days compared to pre-treatment (nausea in gastroparesis): doubled or greater
estimated ED50, brain NK-1 receptor occupancy (brain NK-1 receptors): 0.04 mg/kg
